How the values were obtained:
[1] = molecular target: T1, L-lactate dehydrogenase A chain (Homo sapiens, UniProt P00338); test: Inhibition of human LDHA assessed as reduction in lactate production using pyruvate as substrate at 10 uM in presence of NADH by spectrophotometric analysis relative to control
[2] = molecular target: L-lactate dehydrogenase B chain (Homo sapiens) (UniProt P07195); test: Inhibition of human LDHB assessed as reduction in lactate production using pyruvate as substrate at 10 uM in presence of NADH by spectrophotometric analysis relative to control
Chain of L-lactate dehydrogenase B chain (Homo sapiens) (P07195 2-334 limits assumed): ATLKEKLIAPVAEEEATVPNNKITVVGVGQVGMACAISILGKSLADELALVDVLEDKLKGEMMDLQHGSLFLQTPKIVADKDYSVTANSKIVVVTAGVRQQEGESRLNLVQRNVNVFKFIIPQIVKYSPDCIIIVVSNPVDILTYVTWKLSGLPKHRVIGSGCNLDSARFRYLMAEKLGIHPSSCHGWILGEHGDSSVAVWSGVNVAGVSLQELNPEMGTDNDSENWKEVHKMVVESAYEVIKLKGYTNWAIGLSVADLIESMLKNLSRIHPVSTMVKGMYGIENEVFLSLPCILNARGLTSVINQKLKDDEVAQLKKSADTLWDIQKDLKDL

[3] = molecular target: T1, L-lactate dehydrogenase A chain; test: Non-competitive inhibition of human LDHA assessed as reduction in lactate production using pyruvate as substrate in presence of NADH by Lineweaver-Burk plot analysis

Compound	inhibition [1]	inhibition [2]	Ki [3]
CCCCCc1cc2c(c(O)c1C(=O)O)[C@@H]1C=C(C)CC[C@H]1C(C)(C)O2 [DELTA9-TETRAHYDROCANNABINOLIC ACID A]	> 50%	< 50%	6.5 µM
CC(C)=CCC/C(C)=C/Cc1c(O)cc(C)cc1O		< 50%	
CCCCCc1cc2c(c(O)c1C(=O)O)C=CC(C)(CCC=C(C)C)O2 (centres undefined)		< 50%	
CCCc1cc(O)c2c(c1)OC(C)(C)[C@@H]1CCC(C)=C[C@@H]21		< 50%	
C=C(C)[C@@H]1CCC(C)=C[C@H]1c1c(O)cc(CCC)c(C(=O)O)c1O		< 50%	
C=C(C)[C@@H]1CCC(C)=C[C@H]1c1c(O)cc(CCCCC)c(C(=O)O)c1O		< 50%	
CCCc1cc2c(c(O)c1C(=O)O)C=CC(C)(CCC=C(C)C)O2 (centres undefined)		< 50%	
CCCCCc1cc(O)c2c(c1)OC(C)(C)[C@@H]1CCC(C)=C[C@@H]21 [DRONABINOL]		< 50%	14 µM
CCCCCc1cc(O)c2c(c1)OC(C)(C)c1ccc(C)cc1-2		< 50%	
CCCCCc1cc(O)c(C/C=C(\C)CCC=C(C)C)c(O)c1C(=O)O		< 50%	
CCCc1cc(O)c(C/C=C(\C)CCC=C(C)C)c(O)c1C(=O)O		< 50%	
CCCCCc1cc2c(c(O)c1C(=O)O)-c1cc(C)ccc1C(C)(C)O2		< 50%	
C=C(C)[C@@H]1CCC(C)=C[C@H]1c1c(O)cc(CCCCC)cc1O [CANNABIDIOL]		< 50%	24 µM
CCCc1cc(O)c(C/C=C(\C)CCC=C(C)C)c(O)c1		< 50%	
CCCc1cc2c(c(O)c1C(=O)O)[C@@H]1C=C(C)CC[C@H]1C(C)(C)O2		< 50%	
CCCCCc1cc(O)c2c(c1)OC(C)(CCC=C(C)C)C=C2 (centres undefined) [CANNABICHROMENE]	> 50%	< 50%	8.5 µM
CCCCCc1cc(O)c(C/C=C(\C)CCC=C(C)C)c(O)c1		< 50%	
C=C(C)[C@@H]1CCC(C)=C[C@H]1c1c(O)cc(CCC)cc1O		< 50%	

— ChEMBL document CHEMBL4842310, “Cannabichromene and Δ9-Tetrahydrocannabinolic Acid Identified as Lactate Dehydrogenase-A Inhibitors by in Silico and in Vitro Screening” (J Nat Prod, 2021)
